# Results published in publication PMC4877006, “From Binding-Induced Dynamic Effects in SH3 Structures to Evolutionary Conserved Sectors” (PLoS Computational Biology, 2016).
# How the values were obtained:
# Design in all cases: species or system chicken
# c-Src L40V (SH3 domain) = experiment: ITC binding of peptide RLP2 to c-Src SH3 L40V; settings: ITC, 25 °C
# Method: (§1) Differential Scanning Calorimetry (DSC) was used to evaluate the effect of the mutation on the conformational equilibrium and stability of the protein. Isothermal Titration Calorimetry (ITC) measured the binding energetics of all mutants to the RLP2 ligand at 25°C. The results for the 15 mutants studied are summarized in Figs 1D, S1 and S2, as well as S3 and S4 Tables.
# (§2) The plasmid pET15b containing the chicken c-Src-SH3 domain gene was a generous gift from Dr. E. Freire (Johns Hopkins University). The genes encoding for the c-Src-SH3 mutants were obtained by site directed mutagenesis using the QuickChange Site-Directed-Mutagenesis Kit (Stratagene) taking the WT c-Src-SH3 plasmid as template or purchased from Top Gene Technologies, Canada. WT and mutants of c-Src-SH3 domain were expressed and purified as previously described for the wild type protein [68]. The peptide RLP2 (Ac-RALPPLPRY-NH2) was bought from Peptide 2.0 (Piscataway, USA) and JPT (Berlin, Germany) with a purity > 95%. Protein concentration was determined by absorbance at 280 nm using an extinction coefficient of 16500 M^-1·cm^-1. Peptide concentration was determined by absorbance at 274 nm using an extinction coefficient of 1400 M^-1·cm^-1.
# (§3) Isothermal titration calorimetry was performed using a high-precision VP titration calorimetric system (Microcal Inc., Northampton, MA) as previously described. […] Titrations were made using a profile of injection volumes from 3 μL to 20 μL to define the titration curve more clearly. The heat produced by the binding reaction between the Src-SH3 domain and the peptide ligand was calculated as the difference between the heat of reaction and the corresponding heat of dilution, as obtained from independent titrations of the peptide ligand into the buffer. The resulting binding isotherms were analyzed by non-linear least-square fittings of the experimental data to a model corresponding to a single set of identical sites, as described before.
# (§4) Supplementary file pcbi.1004938.s008.doc: S3 Table Analysis of Src SH3 binding affinities through ITC. Thermodynamic binding affinity to peptide RLP2. A * indicates experiment made by fluorescence titration only. (DOC) Click here for additional data file.
# c-Src N45S (SH3 domain) = biological target: T1, c-Src N45S (SH3 domain) (Gallus gallus, UniProt P00523, N113S); experiment: ITC binding of peptide RLP2 to c-Src SH3 N45S; settings: 25 °C
# T1 construct: The plasmid pET15b containing the chicken c-Src-SH3 domain gene; made in house
# Method: as §1, §2, §3, §4
# c- Src W56L (SH3 domain) = biological target: T2, c- Src W56L (SH3 domain) (Gallus gallus, UniProt P00523, Q128R/W119L); experiment: ITC binding of peptide RLP2 to c-Src SH3 W56L; settings: 25 °C
# T2 construct: The plasmid pET15b containing the chicken c-Src-SH3 domain gene; made in house
# Method: as §1, §2, §3, §4
# c-Src H59R (SH3 domain) = biological target: T3, c-Src H59R (SH3 domain) (Gallus gallus, UniProt P00523, H122R/Q128R); experiment: ITC binding of peptide RLP2 to c-Src SH3 H59R; settings: 25 °C
# T3 construct: The plasmid pET15b containing the chicken c-Src-SH3 domain gene; made in house
# Method: as §1, §2, §3, §4
# c-Src R73E (SH3 domain) = biological target: T4, c-Src R73E (SH3 domain) (Gallus gallus, UniProt P00523, Q128E); experiment: ITC binding of peptide RLP2 to c-Src SH3 R73E; settings: 25 °C
# T4 construct: The plasmid pET15b containing the chicken c-Src-SH3 domain gene; made in house
# Method: as §1, §2, §3, §4
# c-Src R73K (SH3 domain) = biological target: T5, c-Src R73K (SH3 domain) (Gallus gallus, UniProt P00523, Q128K); experiment: ITC binding of peptide RLP2 to c-Src SH3 R73K; settings: 25 °C
# T5 construct: The plasmid pET15b containing the chicken c-Src-SH3 domain gene; made in house
# Method: as §1, §2, §3, §4
# c- Src R73Q (SH3 domain) = biological target: T6, c- Src R73Q (SH3 domain) (Gallus gallus, UniProt P00523); experiment: ITC binding of peptide RLP2 to c-Src SH3 R73Q; settings: 25 °C
# T6 construct: The plasmid pET15b containing the chicken c-Src-SH3 domain gene; made in house
# Method: as §1, §2, §3, §4
# c- Src I77V (SH3 domain) = biological target: T7, c- Src I77V (SH3 domain) (Gallus gallus, UniProt P00523, I132V); experiment: ITC binding of peptide RLP2 to c-Src SH3 I77V; settings: 25 °C
# T7 construct: The plasmid pET15b containing the chicken c-Src-SH3 domain gene; made in house
# Method: as §1, §2, §3, §4
# [1] = binding of RLP2, N45S relative to wt
# [2] = binding of RLP2, W56L relative to wt
# [3] = binding of RLP2, H59R relative to wt
# [4] = binding of RLP2, R73E relative to wt
# [5] = binding of RLP2, R73K relative to wt
# [6] = binding of RLP2, R73Q relative to wt
# [7] = binding of RLP2, I77V relative to wt
substance,measurement,setting,value
"Ac-RALPPLPRY-NH2 [RLP2, Ac-RALPPLPRY-NH2]",∆Hb (25 ºC),"c-Src L40V (SH3 domain); binding of RLP2, L40V",-14.8 ± 0.2 kcal/mol
same,Kd,"c-Src L40V (SH3 domain); RLP2 about 2 mM titrated into SH3 (50-122 μM), L40V, read-out: Kd (25 ºC)",20.5 ± 0.6 µM
same,∆∆Gb (25 ºC),c-Src N45S (SH3 domain); [1],0.19 ± 0.04 kcal/mol
same,∆∆Hb (25 ºC),c-Src N45S (SH3 domain); [1],0.1 ± 0.3 kcal/mol
same,∆Gb (25 ºC),"c-Src N45S (SH3 domain); ITC, binding of RLP2, N45S",-6.44 ± 0.02 kcal/mol
same,∆Hb (25 ºC),"c-Src N45S (SH3 domain); ITC, binding of RLP2, N45S",-14.1 ± 0.2 kcal/mol
same,Kd,"c-Src N45S (SH3 domain); ITC, RLP2 about 2 mM titrated into SH3 (50-122 μM), N45S, read-out: Kd (25 ºC)",19 ± 0.6 µM
same,∆∆Gb (25 ºC),c- Src W56L (SH3 domain); [2],0.98 ± 0.03 kcal/mol
same,∆∆Hb (25 ºC),c- Src W56L (SH3 domain); [2],2.4 ± 0.2 kcal/mol
same,∆Gb (25 ºC),"c- Src W56L (SH3 domain); ITC, binding of RLP2, W56L",-5.65 ± 0.01 kcal/mol
same,∆Hb (25 ºC),"c- Src W56L (SH3 domain); ITC, binding of RLP2, W56L",-11.8 ± 0.1 kcal/mol
same,Kd,"c- Src W56L (SH3 domain); ITC, RLP2 about 2 mM titrated into SH3 (50-122 μM), W56L, read-out: Kd (25 ºC)",72.5 ± 1.4 µM
same,∆∆Gb (25 ºC),c-Src H59R (SH3 domain); [3],-0.13 ± 0.03 kcal/mol
same,∆∆Hb (25 ºC),c-Src H59R (SH3 domain); [3],-0.1 ± 0.3 kcal/mol
same,∆Gb (25 ºC),"c-Src H59R (SH3 domain); ITC, binding of RLP2, H59R",-6.76 ± 0.01 kcal/mol
same,∆Hb (25 ºC),"c-Src H59R (SH3 domain); ITC, binding of RLP2, H59R",-14.3 ± 0.2 kcal/mol
same,Kd,"c-Src H59R (SH3 domain); ITC, RLP2 about 2 mM titrated into SH3 (50-122 μM), H59R, read-out: Kd (25 ºC)",11 ± 0.2 µM
same,∆∆Gb (25 ºC),c-Src R73E (SH3 domain); [4],-0.24 ± 0.04 kcal/mol
same,∆∆Hb (25 ºC),c-Src R73E (SH3 domain); [4],-0.1 ± 0.3 kcal/mol
same,∆Gb (25 ºC),"c-Src R73E (SH3 domain); ITC, binding of RLP2, R73E",-6.87 ± 0.03 kcal/mol
same,∆Hb (25 ºC),"c-Src R73E (SH3 domain); ITC, binding of RLP2, R73E",-14.3 ± 0.2 kcal/mol
same,Kd,"c-Src R73E (SH3 domain); ITC, RLP2 about 2 mM titrated into SH3 (50-122 μM), R73E (control), read-out: Kd (25 ºC)",9.3 ± 0.5 µM
same,∆∆Gb (25 ºC),c-Src R73K (SH3 domain); [5],-0.12 ± 0.04 kcal/mol
same,∆∆Hb (25 ºC),c-Src R73K (SH3 domain); [5],0.3 ± 0.2 kcal/mol
same,∆Gb (25 ºC),"c-Src R73K (SH3 domain); ITC, binding of RLP2, R73K",-6.75 ± 0.02 kcal/mol
same,∆Hb (25 ºC),"c-Src R73K (SH3 domain); ITC, binding of RLP2, R73K",-13.9 ± 0.1 kcal/mol
same,Kd,"c-Src R73K (SH3 domain); ITC, RLP2 about 2 mM titrated into SH3 (50-122 μM), R73K (control), read-out: Kd (25 ºC)",11.3 ± 0.4 µM
same,∆∆Gb (25 ºC),c- Src R73Q (SH3 domain); [6],-0.11 ± 0.04 kcal/mol
same,∆∆Hb (25 ºC),c- Src R73Q (SH3 domain); [6],-0.4 ± 0.2 kcal/mol
same,∆Gb (25 ºC),"c- Src R73Q (SH3 domain); ITC, binding of RLP2, R73Q",-6.74 ± 0.02 kcal/mol
same,∆Hb (25 ºC),"c- Src R73Q (SH3 domain); ITC, binding of RLP2, R73Q",-14.6 ± 0.1 kcal/mol
same,Kd,"c- Src R73Q (SH3 domain); ITC, RLP2 about 2 mM titrated into SH3 (50-122 μM), R73Q (control), read-out: Kd (25 ºC)",11.4 ± 0.3 µM
same,∆∆Gb (25 ºC),c- Src I77V (SH3 domain); [7],0.31 ± 0.03 kcal/mol
same,∆∆Hb (25 ºC),c- Src I77V (SH3 domain); [7],0.5 ± 0.2 kcal/mol
same,∆Hb (25 ºC),"c- Src I77V (SH3 domain); ITC, binding of RLP2, I77V",-13.7 ± 0.1 kcal/mol
same,Kd,"c- Src I77V (SH3 domain); ITC, RLP2 about 2 mM titrated into SH3 (50-122 μM), I77V, read-out: Kd (25 ºC)",15.5 ± 0.3 µM
